Here are results for 28 molecules from US8026243B2, “[4,5′]Bipyrimidinyl-6,4′-diamine derivatives as protein kinase inhibitors” (Novartis AG, priority 2006, dated 2011).

One assay deals with T1, Ba/F3-TEL-FGFR3 cells (Homo sapiens, UniProt P22607).
T1 construct: fused on or other part: The N-terminal oligomerising part of TEL (ETV6) is fused before the intracellular kinase part of FGFR3; P41212 (Transcription factor ETV6)
T1 sequence (P22607 whole entry, change not shown, the tested form may be a part): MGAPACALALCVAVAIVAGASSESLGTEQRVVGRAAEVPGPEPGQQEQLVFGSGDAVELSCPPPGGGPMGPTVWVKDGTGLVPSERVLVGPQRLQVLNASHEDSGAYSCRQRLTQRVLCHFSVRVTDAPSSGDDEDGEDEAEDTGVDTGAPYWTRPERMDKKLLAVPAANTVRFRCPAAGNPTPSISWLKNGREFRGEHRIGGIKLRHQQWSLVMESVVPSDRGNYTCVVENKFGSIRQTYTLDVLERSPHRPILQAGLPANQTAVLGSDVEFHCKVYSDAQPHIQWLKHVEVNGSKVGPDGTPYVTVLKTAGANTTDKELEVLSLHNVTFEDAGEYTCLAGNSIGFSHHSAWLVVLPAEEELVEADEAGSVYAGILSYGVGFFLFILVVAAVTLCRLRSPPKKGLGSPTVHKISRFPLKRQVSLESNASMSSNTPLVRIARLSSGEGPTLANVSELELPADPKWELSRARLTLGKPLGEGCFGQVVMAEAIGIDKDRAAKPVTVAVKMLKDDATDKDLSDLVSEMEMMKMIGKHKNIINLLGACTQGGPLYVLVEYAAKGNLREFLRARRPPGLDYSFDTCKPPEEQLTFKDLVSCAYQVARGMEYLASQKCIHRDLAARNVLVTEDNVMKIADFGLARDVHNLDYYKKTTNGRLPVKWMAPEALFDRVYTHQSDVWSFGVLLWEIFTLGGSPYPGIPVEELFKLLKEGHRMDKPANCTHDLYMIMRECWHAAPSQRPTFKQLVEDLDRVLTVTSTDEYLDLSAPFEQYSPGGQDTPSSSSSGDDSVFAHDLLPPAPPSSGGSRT
Kind of assay: FGFR3 cellular assay: proliferation of transformed Ba/F3-TEL-FGFR3 cells (AlamarBlue). It is filed as cell-based. The following applies: 48 hours incubation, class symbols. As to the method:
Compounds of the invention are tested for their ability to inhibit transformed Ba/F3-TEL-FGFR3 cells proliferation, which is dependent on FGFR3 cellular kinase activity. Ba/F3-TEL-FGFR3 are cultured up to 800,000 cells/mL in suspension, with RPMI 1640 supplemented with 10% fetal bovine serum as the culture medium. Cells are dispensed into 384-well format plate at 5000 cell/well in […], culture medium. Compounds of the invention are dissolved and diluted in dimethylsulfoxide (DMSO). Twelve points 1:3 serial dilutions are made into DMSO to create concentrations gradient ranging typically from 10 mM to 0.05 μM. Cells are added with 50 nL of diluted compounds and incubated for 48 hours in cell culture incubator. AlamarBlue® (TREK Diagnostic Systems), which can be used to monitor the reducing environment created by proliferating cells, are added to cells at final concentration of 10%. After additional four hours of incubation in a 37° C. cell culture incubator, fluorescence signals from reduced AlamarBlue® (Excitation at 530 nm, Emission at 580 nm) are quantified on Analyst GT (Molecular Devices Corp.). IC50 values are calculated by linear regression analysis of the percentage inhibition of each compound at 12 concentrations.
(Resazurin is reduced to fluorescent resorufin, in cell work by metabolically active cells.)
In turn, `COc1cc(OC)c(Cl)c(Nc2nccnc2-c2cc(Nc3cc(CN4CCOCC4)ccn3)ncn2)c1F` [Compound 97, {6-[3-(2-chloro-3,5-dimethoxy-6-fluoro phenylamino)-pyrazin-2-yl]-pyrimidin-4-yl}-(4-morpholin-4-ylmethyl-pyridin-2-yl)-amine] displayed a GI50 below 100 nM.
With `CCN1CCN(Cc2ccc(Nc3cc(-c4cncnc4Nc4c(Cl)c(OC)cc(OC)c4Br)ncn3)nc2)CC1` [Compound 50, N4′-(2-Bromo-6-chloro-3,5-dimethoxy-phenyl)-N6-[5-(4-ethyl-piperazin-1-ylmethyl)-pyridin-2-yl]-[4,5′]bipyrimidinyl-6,4′-diamine], the concentration for 50% growth inhibition (GI50) is below 100 nM.
Still for that read-out and setting: the same measure for `CCNC(=O)c1cc(OC)c(Cl)c(Nc2ncncc2-c2cc(Nc3ccc(N4CCN(CC)CC4)cc3)ncn2)c1Cl` [Compound 36, 2,4-Dichloro-N-ethyl-3-{6-[4-(4-ethyl-piperazin-1-yl)-phenylamino]-[4,5′]bipyrimidinyl-4′-ylamino}-5-methoxy-benzamide]: below 100 nM.
Take `CCNC(=O)c1cc(OC)c(Cl)c(Nc2ncncc2-c2cc(Nc3cc(CN4CCOCC4)ccn3)ncn2)c1Cl` [Compound 33, 2,4-Dichloro-N-ethyl-5-methoxy-3-[6-(4-morpholin-4-ylmethyl-pyridin-2-ylamino)-[4,5′]bipyrimidinyl-4′-ylamino]-benzamide]: the 50% growth inhibitory concentration (GI50) was below 100 nM.
Same read-out and setting: the same measure for `COc1cc(OC)c(Cl)c(Nc2ncncc2-c2cc(Nc3ccc(CN4CCN(C(N)=O)CC4)cn3)ncn2)c1Cl` [Compound 15, 4-{6-[4′-(2,6-Dichloro-3,5-dimethoxy-phenylamino)-[4,5′]bipyrimidinyl-6-ylamino]-pyridin-3-ylmethyl}-piperazine-1-carboxylic acid amide]: below 100 nM.
Still for that read-out and setting: the figure for `COc1cc(OC)c(F)c(Nc2ncncc2-c2cc(Nc3ccc(CN4CCN(C(=O)CO)CC4)cn3)ncn2)c1F` [Compound 89] is below 100 nM; for `COc1cc(Nc2ncncc2-c2cc(Nc3ccc(C(C)O)cn3)ncn2)c(F)c(OC)c1` (stereo not shown) [Compound 83, 1-{6-[4′-(2-Fluoro-3,5-dimethoxy-phenylamino)-[4,5′]bipyrimidinyl-6-ylamino]-pyridin-3-yl}-ethanol] it is below 100 nM.
Still for that read-out and setting: the same measure for `COc1cc(OC)c(Cl)c(Nc2ncncc2-c2cc(Nc3ccc(CN4CCN(CCO)CC4)cn3)ncn2)c1F` [Compound 73, 2-(4-{6-[4′-(2-Chloro-6-fluoro-3,5-dimethoxy-phenylamino)-[4,5′]bipyrimidinyl-6-ylamino]-pyridin-3-ylmethyl}-piperazin-1-yl)-ethanol]: below 100 nM; for `COc1cc(OC)c(Br)c(Nc2ncncc2-c2cc(Nc3cc(CN4CCOCC4)ccn3)ncn2)c1Cl` [Compound 51, N4′-(2-Bromo-6-chloro-3,5-dimethoxy-phenyl)-N6-(4-morpholin-4-ylmethyl-pyridin-2-yl)-[4,5′]bipyrimidinyl-6,4′-diamine]: below 100 nM.
With `COc1cc(OC)c(F)c(Nc2ncncc2-c2cc(Nc3ccc(CN4CCN(CCO)CC4)cn3)ncn2)c1F` [Compound 74, 2-(4-{6-[4′-(2,6-Difluoro-3,5-di-methoxy-phenylamino)-[4,5′]bipyrimidinyl-6-ylamino]-pyridin-3-ylmethyl}-piperazin-1-yl)-ethanol], the GI50 was below 100 nM.
For the molecule `COc1cc(OC)c(Cl)c(Nc2ncncc2-c2cc(Nc3ccc(C(C)O)cn3)ncn2)c1F` (stereo not shown) [Compound 79, 1-{6-[4′-(2-Chloro-6-fluoro-3,5-dimethoxy-phenylamino)-[4,5′]bipyrimidinyl-6-ylamino]-pyridin-3-yl}-ethanol], the GI50 is below 100 nM.
The same measure, in the same setting: the same measure for `COc1ccc(F)c(Nc2nccnc2-c2cc(Nc3ccc(CN4CCOCC4)cn3)ncn2)c1F` [Compound 104, {6-[3-(2,6-Difluoro-3-methoxy-phenylamino)-pyrazin-2-yl]-pyrimidin-4-yl}-N-(5-(morpholin-4-ylmethyl)-pyridin-2-yl)-amine]: below 100 nM.
On to `CCN1CCN(c2ccc(Nc3cc(-c4cncnc4Nc4c(F)c(OC)cc(OC)c4Cl)ncn3)cc2)CC1` [Compound 59, N4′-(2-Chloro-6-fluoro-3,5-di-methoxy-phenyl)-N6-[4-(4-ethyl-piperazin-1-yl)-phenyl]-[4,5′]bipyrimidinyl-6,4′-diamine], for which the GI50 is below 100 nM.
On to `CCN1CCN(Cc2ccc(Nc3cc(-c4cncnc4Nc4cc(OC)cc(OC)c4F)ncn3)nc2)CC1` [Compound 69, N6-[5-(4-Ethyl-piperazin-1-ylmethyl)-pyridin-2-yl]-N4′-(2-fluoro-3,5-dimethoxy-phenyl)-[4,5′]bipyrimidinyl-6,4′-diamine], for which the GI50 is below 100 nM.
Same read-out and setting: the figure for `COc1cc(OC)c(Cl)c(Nc2nccnc2-c2cc(Nc3ccc(CN4CCOCC4)cn3)ncn2)c1Cl` [Compound 94, {6-[3-(2,6-Dichloro-3,5-dimethoxy-phenylamino)-pyrazin-2-yl]-pyrimidin-4-yl}-(5-morpholin-4-ylmethyl-pyridin-2-yl)-amine] is below 100 nM; for `CCN1CCN(c2ccc(Nc3cc(-c4cncnc4Nc4c(Cl)c(OC)cc(OC)c4Br)ncn3)nc2)CC1` [Compound 47, N4′-(2-Bromo-6-chloro-3,5-dimethoxy-phenyl)-N6-[5-(4-ethyl-piperazin-1-yl)-pyridin-2-yl]-[4,5′]bipyrimidinyl-6,4′-diamine] it is below 100 nM; for `COc1cc(OC)c(Cl)c(Nc2ncncc2-c2cc(Nc3ccc(CN4CCN(C(=O)CO)CC4)cn3)ncn2)c1F` [Compound 88, 1-(4-{6-[4′-(2-Chloro-6-fluoro-3,5-dimethoxy-phenylamino)-[4,5′]bipyrimidinyl-6-ylamino]-pyridin-3-ylmethyl}-piperazin-1-yl)-2-hydroxy-ethanone] it is below 100 nM.
The same measure, in the same setting: the figure for `CCN1CCN(Cc2ccc(Nc3cc(-c4cncnc4Nc4cc(OC)cc(OC)c4Cl)ncn3)nc2)CC1` [Compound 38, N4′-(2-Chloro-3,5-dimethoxy-phenyl)-N6-[5-(4-ethyl-piperazin-1-ylmethyl)-pyridin-2-yl]-[4,5′]bipyrimidinyl-6,4′-diamine] is 100 to 250 nM; for `CCNC(=O)c1cc(OC)c(Cl)c(Nc2ncncc2-c2cc(Nc3ccc(CN4CCN(C)CC4)cn3)ncn2)c1Cl` [Compound 34, 2,4-Dichloro-N-ethyl-5-methoxy-3-{6-[5-(4-methyl-piperazin-1-ylmethyl)-pyridin-2-ylamino]-[4,5′]bipyrimidinyl-4′-ylamino}-benzamide] it is 250 to 500 nM.
Molecule `COc1cc(OC)c(Cl)c(Nc2ncncc2-c2cc(Nc3cccc(C(C)O)c3)ncn2)c1Cl` (stereo not shown) [Compound 29, 1-{3-[4′-(2,6-Dichloro-3,5-dimethoxy-phenylamino)-[4,5′]bipyrimidinyl-6-ylamino]-phenyl}-ethanol] showed a GI50 below 100 nM.
On the same count and under the same terms, the figure for `COc1cc(C(=O)NC2CC2)c(Cl)c(Nc2ncncc2-c2cc(Nc3ccc(CN4CCOCC4)cn3)ncn2)c1Cl` [Compound 57, 2,4-Dichloro-N-cyclopropyl-5-methoxy-3-[6-(5-morpholin-4-ylmethyl-pyridin-2-ylamino)-[4,5′]bipyrimidinyl-4′-ylamino]-benzamide] is below 100 nM.
The same measure, in the same setting: the same measure for `CCN1CCN(c2ccc(Nc3cc(-c4cncnc4Nc4c(Cl)c(OC)cc(C(=O)OC)c4Cl)ncn3)nc2)CC1` [Compound 41, 2,4-Dichloro-3-{6-[5-(4-ethyl-piperazin-1-yl)-pyridin-2-ylamino]-[4,5′]bipyrimidinyl-4′-ylamino}-5-methoxy-benzoic acid methyl ester]: below 100 nM.
Take `COc1cc(OC)c(Br)c(Nc2ncncc2-c2cc(Nc3ccc(CN4CCOCC4)cn3)ncn2)c1Cl` [Compound 49, N4′-(2-Bromo-6-chloro-3,5-dimethoxy-phenyl)-N6-(5-morpholin-4-ylmethyl-pyridin-2-yl)-[4,5′]bipyrimidinyl-6,4′-diamine]: the concentration for 50% growth inhibition (GI50) was below 100 nM.
`COc1cc(OC)c(Cl)c(Nc2ncncc2-c2cc(Nc3ccc(CN4CCOCC4)cn3)ncn2)c1Cl` [Compound 4, N4′-(2,6-Dichloro-3,5-dimethoxy-phenyl)-N6-(5-morpholin-4-ylmethyl-pyridin-2-yl)-[4,5′]bipyrimidinyl-6,4′-diamine] returned a GI50 below 100 nM.
The same measure, in the same setting: the same measure for `COc1cc(OC)c(Cl)c(Nc2ncncc2-c2cc(Nc3ccc(CN4CCN(C(=O)N(C)C)CC4)cn3)ncn2)c1Cl` [Compound 19, 4-{6-[4′-(2,6-Dichloro-3,5-dimethoxy-phenylamino)-[4,5′]bipyrimidinyl-6-ylamino]-pyridin-3-ylmethyl}-piperazine-1-carboxylic acid dimethyl-amide]: below 100 nM; for `COc1cc(OC)c(Cl)c(Nc2ncncc2-c2cc(Nc3cc(CCN4CCOCC4)ccn3)ncn2)c1F` [Compound 56, N4′-(2-Chloro-6-fluoro-3,5-dimethoxy-phenyl)-N6-[4-(2-morpholin-4-yl-ethyl)-pyridin-2-yl]-[4,5′]bipyrimidinyl-6,4′-diamine]: below 100 nM.
The molecule `CCNC(=O)c1cc(OC)c(Cl)c(Nc2ncncc2-c2cc(Nc3ccc(CN(C)C)cn3)ncn2)c1Cl` [Compound 31, 2,4-Dichloro-3-[6-(5-dimethylaminomethyl-pyridin-2-ylamino)-[4,5′]bipyrimidinyl-4′-ylamino]-N-ethyl-5-methoxy-benzamide] showed a GI50 below 100 nM.

Still in this assay, the particulars now being: 48 hours incubation, given as bound.
In turn, `Clc1cccc(Cl)c1Nc1nccnc1-c1cc(Nc2ccc(CN3CCOCC3)cn2)ncn1` [Compound 107, 6-(3-(2,6-dichlorophenylamino)pyrazin-2-yl)-N-(5-(morpholinomethyl)pyridin-2-yl)pyrimidin-4-amine] displayed a concentration for 50% growth inhibition (GI50) above 500 nM.

The term GI50 denotes the concentration that inhibits growth by half. A low value points to greater sensitivity of the cells.
